Data on 76 compounds can be found in PubChem BioAssay AID1996.

SMILES strings stand for the structures. In brackets after ≈: the same amount, converted by molar mass.

For the series the following is noted: buffer; pH 7.4; 200.0 µM.
For `CC(O)Cn1c(N2CCCC2)nc2c1c(=O)n(C)c(=O)n2C` (stereo unspecified), the kinetic solubility (usually the concentration staying in solution when a stock, usually in DMSO, is diluted into the medium) was over 46.1 µg/mL.
Under `OC(CN1CCN(c2cccc(Cl)c2)CC1)c1ccccc1` (stereo unspecified) stands 16.1 µg/mL (≈ 50.8 µM); under `CC1CCN(C(=S)c2cccc(O)c2)CC1`, 32.8 µg/mL (≈ 139 µM); under `CC1CN(c2ccnc3cc(Cl)ccc23)CC(C)O1` (stereo unspecified), over 41.5 µg/mL.
Under `Cc1cc(C)nc(NC(N)=S)n1` stands 10.4 µg/mL (≈ 57.1 µM); under `O=C(O)CC1(CC(=O)Nc2cc(F)ccc2Cl)CCCCC1`, over 49.2 µg/mL; under `CC1CCCCC1NC(=O)C(C)N1C(=O)c2ccccc2C1=O` (stereo unspecified), over 47.2 µg/mL.
As for `COc1ccc(C)cc1NC(=O)NC1CCCCCCC1`, the figure is under 0.3 µg/mL; as for `O=C(O)c1ccc2c(c1)C(=O)N(CCc1ccccc1)C2=O`, over 44.3 µg/mL.
As for `Cc1ccccc1SCC(=O)OCC(=O)NCc1ccccc1`, the solubility (kinetic) is over 49.4 µg/mL.
Under `Cc1ccc(C)c(NC(=S)N(C)CCO)c1` stands over 35.8 µg/mL; under `O=C(CC1NC(=S)NC1=O)c1ccc(Cl)cc1` (stereo unspecified), 3.2 µg/mL (≈ 11.9 µM).
As to `Cc1cc2ccccn2c1C(=O)c1ccc(F)cc1`, the kinetic solubility came out at 0.9 µg/mL (≈ 3.55 µM). Compared with the last compound, the solubility kinetic is about 3.6-fold lower.
The compound `COc1cccc(N(CC(=O)N2CCCC2)S(C)(=O)=O)c1` gave a kinetic solubility of over 46.9 µg/mL.
As for `O=C(O)c1ccccc1Nc1ccnc(C(F)(F)F)c1`, the kinetic solubility was over 42.3 µg/mL.
Compound `Cc1ccc(OC(C)C(=O)Nc2cc(C)on2)cc1` (stereo unspecified) registered a solubility (kinetic) of 36.2 µg/mL (≈ 139 µM).
Consider `Cc1cnc(C(=O)OCC(=O)c2cccc3ccccc23)cn1`, for which the solubility (kinetic) is 36.1 µg/mL (≈ 118 µM).
Under `CC(C)COc1ccc(CNC(=S)Nc2ccccc2)cc1Cl` stands under 0.4 µg/mL; under `CC(C)c1ccc(/C=C2\NC(=O)NC2=O)cc1`, 13.9 µg/mL (≈ 60.4 µM).
As for `Cl.c1ccc(C2CN3CCSC3=N2)cc1` (stereo unspecified), the figure is over 36.1 µg/mL.
The compound `O=S(=O)(Nc1cccc2ccccc12)c1cccc2nonc12` registered a kinetic solubility of over 48.8 µg/mL.
As for `CC(C)N1CC(COc2ccc(Br)cc2)OC1=O` (stereo unspecified), the figure is 45.1 µg/mL (≈ 144 µM).
`O=C(Nc1ncccn1)c1cc(-c2ccc(F)cc2)nc2ccccc12` came in with a kinetic solubility of 44.5 µg/mL (≈ 129 µM).
The compound `CN1OC[C@@H]2COc3ccc4ccccc4c3[C@@H]21` came in with a kinetic solubility of 33.1 µg/mL (≈ 137 µM).
As for `O=C(COC(=O)/C=C/c1cccs1)NC1CCCCC1`, the figure is 9.4 µg/mL (≈ 32 µM).
As for `C=CCC(Nc1ccccc1)c1cccc(OC)c1OC` (stereo unspecified), the figure is 10.8 µg/mL (≈ 38.1 µM); as for `CCOC(=O)N1CCc2c(sc(N)c2C#N)C1`, 31.2 µg/mL (≈ 124 µM); as for `CC(C)[C@H](NC(=O)c1ccccc1Cl)C(=O)OCC(=O)Nc1ccc(S(=O)(=O)N2CCOCC2)cc1`, 40.3 µg/mL (≈ 74.9 µM).
As for `CC(=O)c1ccc(N=C2SCCCN2C(=O)C2CCCC2)cc1`, the figure is 47.5 µg/mL (≈ 144 µM).
Compound `O=C(CCN1CCN(c2ccccc2F)CC1)Nc1ccccc1Cl` yielded a solubility (kinetic) of over 54.3 µg/mL.
As for `CC1C(c2ccccc2)N(C)C(c2ccccc2)CC1(O)c1ccc(F)cc1` (stereo unspecified), the figure is 5.7 µg/mL (≈ 15.2 µM); as for `O=C1CCCN1c1ccc(N2CCCC2=O)cc1`, over 36.6 µg/mL.
As to `CC(=O)CSc1ccc(-c2nc3cc(C)c(C)cc3[nH]2)cn1`, the solubility (kinetic) amounted to 3.9 µg/mL (≈ 12.5 µM).
As for `CC1CCN(Cc2nc(-c3ccc(Cl)cc3)no2)CC1`, the figure is 2.2 µg/mL (≈ 7.54 µM); as for `COc1ccc(/C=N/Nc2nc(C)cc(=O)[nH]2)cc1OC`, over 43.2 µg/mL.
Under `O=C(CCNC(=O)c1ccccc1Cl)Nc1ccc(S(=O)(=O)Nc2nccs2)cc1` stands over 69.7 µg/mL; under `CCOC(=O)C1=Nc2ccccc2/C1=C\c1c(O)n(C)c(=O)n(C)c1=O`, 46.5 µg/mL (≈ 131 µM).
`CC(O)CNCCCCOc1ccc(OCc2ccccc2)cc1` (stereo unspecified): the solubility (kinetic) came to 40.7 µg/mL (≈ 124 µM).
The compound `COc1ccc(OC)c(C(=O)COC(=O)c2cccnc2SC)c1` gave a solubility (kinetic) of 4.2 µg/mL (≈ 12.1 µM).
`NC(=O)Nc1ccc(C(=O)OCC(=O)NC2CCCCC2)cc1` had a solubility (kinetic) of 37.5 µg/mL (≈ 117 µM).
Under `CS(=O)(=O)c1ccccc1C(=O)Nc1ccc2sccc2c1` stands 33.8 µg/mL (≈ 102 µM).
As for `COc1cccc(NC(=O)C2(S(=O)(=O)c3ccc(Cl)cc3)CC2)c1`, the figure is 33.1 µg/mL (≈ 90.5 µM); as for `COc1cc(/C(C)=N/N2CCOCC2)cc(OC)c1OC`, over 44.2 µg/mL.
`Cc1c(Cl)cccc1NC(=S)NC1CCCC1` came in with a kinetic solubility of 7.5 µg/mL (≈ 27.9 µM).
Turning to `O=C1C=C(NCCOC23CC4CC(CC(C4)C2)C3)C2(CCCCC2)O1`, the solubility (kinetic) came to 4 µg/mL (≈ 11.6 µM).
`O=C(Nc1nc2ccccc2[nH]1)C1CCC1` displayed a kinetic solubility of 6 µg/mL (≈ 27.9 µM).
Under `COc1cc(C(=O)Nc2ccn(C)n2)ccc1OC(F)F` stands over 44.6 µg/mL; under `O=C(CCNC(=O)c1ccco1)Nc1ccccc1N1CCOCC1`, over 51.5 µg/mL; under `CC(C(=O)O/N=C(\N)c1cccnc1)c1ccc([N+](=O)[O-])cc1` (stereo unspecified), 41.2 µg/mL (≈ 131 µM).
Turning to `CC1CCCN(C(=O)c2cc(-c3cccs3)nc3ccccc23)C1` (stereo unspecified), the solubility (kinetic) worked out at 17.2 µg/mL (≈ 51.1 µM).
`Cc1cc(C)c(C)c(OCCCCN2CCCCC2)c1` yielded a kinetic solubility of 29.4 µg/mL (≈ 107 µM).
Under `Fc1ccc(NC(=S)N2CCOCC2)c(F)c1` stands over 38.7 µg/mL.
`Brc1ccc(Nc2nc(-c3cccnc3)cs2)cc1` showed a kinetic solubility of 0.3 µg/mL (≈ 0.903 µM).
Under `O=C(Nc1cc2c(cc1Br)OCCCO2)c1cccnc1` stands over 52.4 µg/mL; under `CCOc1ccccc1NS(=O)(=O)c1ccc2[nH]c(=O)[nH]c2c1`, over 50 µg/mL; under `CC1CC(C)CN(C(=O)C(C)N2CCN(S(=O)(=O)c3ccc(Br)s3)CC2)C1` (stereo unspecified), 29.7 µg/mL (≈ 62.1 µM).
Under `CC(=O)N1N=C2C3CCN(CC3)C2C1c1ccc(F)cc1` (stereo unspecified) stands over 43.1 µg/mL; under `O=C(CNC(=O)Cc1ccc(Cl)cc1)NCc1ccco1`, 26.4 µg/mL (≈ 86.1 µM); under `Clc1nc2ccccc2nc1-c1ccccc1`, 0.6 µg/mL (≈ 2.49 µM).
As for `CN1CCOC(c2ccccc2)c2ccccc2C1.Cl` (stereo unspecified), the figure is over 43.5 µg/mL; as for `COc1ccc(CC(=O)Nc2ccc(OC)nc2)cc1`, over 40.8 µg/mL; as for `O=C(NCc1ccccc1Cl)c1ccc(Br)o1`, 41.9 µg/mL (≈ 133 µM).
With `Oc1ccc(C=NCCc2ccccc2)cc1`, the kinetic solubility was over 33.8 µg/mL.
As for `O=C(NCCc1ccccc1)C(=S)N1CCCCC1`, the figure is over 41.5 µg/mL; as for `COCCCNC(=S)NCCc1ccc(F)cc1`, over 40.6 µg/mL; as for `O=[N+]([O-])c1cc([N+](=O)[O-])c2nonc2c1Nc1ccc(O)cc1`, over 47.6 µg/mL.
As for `Cc1ccc(CNC(=O)Nc2ccc(Cl)cc2)cc1`, the figure is under 0.3 µg/mL; as for `O=C(CNC1CCCCC1)Nc1cccc([N+](=O)[O-])c1`, 31.4 µg/mL (≈ 113 µM).
`Oc1cccc(C(=S)N2CCC(Cc3ccccc3)CC2)c1` showed a solubility (kinetic) of 15 µg/mL (≈ 48.2 µM).
`CCOc1ccc(C(=O)NCC2CCN(CC3CCCCC3)CC2)cc1` displayed a kinetic solubility of over 53.8 µg/mL.
Take `COc1cc(C)c(NC(=S)NCCCN2CCOCC2)cc1OC`: the solubility (kinetic) is over 53 µg/mL.
`Cc1cc(C)cc(NS(=O)(=O)c2ccc3[nH]c(=O)ccc3c2)c1` came in with a kinetic solubility of 1.5 µg/mL (≈ 4.57 µM).
On to `COc1ccccc1C(=O)Nc1nc(C)cc(C)n1`, for which the kinetic solubility turned out to be 31.7 µg/mL (≈ 123 µM). This solubility kinetic is about 21-fold higher than that of the compound before.
As for `COc1ccc(C)cc1S(=O)(=O)N1CC(C)OC(C)C1` (stereo unspecified), the figure is over 44.9 µg/mL; as for `Cc1ccc(NC(=O)c2cc(=O)[nH]c3ccccc23)cc1C`, under 0.3 µg/mL; as for `COc1ccc(N2CCN(C(=O)[C@H](C)N3C(=O)C4CC=CCC4C3=O)CC2)cc1` (stereo partly specified), over 59.6 µg/mL.
